This passage reports melting point results from a melting point compilation (Tetko et al.; mined from patent text by program, amines drawn as free bases though some values may be those of a salt).

One may read the melting point as the temperature, or range, at which the solid turns liquid.

Turning to `COc1ccc(CN2C(=O)[C@H]([C@@H](C)O)[C@H]2[C@@H]2COC(C)(C)O2)c(OC)c1`, the melting point was in the range of 145 to 146 °C. For `CCCCCCCCOC(=O)c1ccc(C(=O)O)cc1`, the melting point stood at 113 °C.

In the case of `O=C(NC1(C(=O)O)CCCCC1)C(CS)Cc1ccccc1` (stereo not drawn), the melting point lay in the range of 193 to 195 °C.

`Cc1nccn1Cc1ccc(N)cc1C(F)(F)F` registered a melting point of 146 to 147 °C. In the case of `Clc1ccc2c(c1)N(CC#CCN1CCCC1)c1ccccc1S2` it was 48 to 50 °C.

`O=C(c1cccnc1)N1CCC(c2nc(-c3cnc(-c4ccccc4)nc3)c[nH]2)CC1` returned a melting point of 234 °C. In the case of `CC1(C(=O)Nc2ccc(-n3nc(C(F)(F)F)cc3C(F)(F)F)cc2)C=CCCC1` (stereo not drawn), the melting point is 108 to 110 °C. `NC(=O)c1cnc2c(NC(=O)c3c(Cl)cccc3Cl)cccc2c1` yielded a melting point of more than 250 °C. In the case of `COc1ccc(-c2nc(C)nn2-c2ccccc2S(N)(=O)=O)cc1OC` it was 176 to 178 °C; in that of `CSC1NC(=O)N(C)C(=O)N1C` (stereo not drawn), 137 to 139 °C; in that of `CC(C)Cc1nc(-c2ccccc2)cnc1O`, 205 to 207 °C. `Cc1cc(C#N)cc(C)c1Oc1nc(Nc2ccc(C#N)cc2)nc(N)c1Br` displayed a melting point of 271 °C. For `CC(C)(C)OC(=O)Cn1c(C(=O)c2ccccc2)ccc1-c1ccccc1` the value was 85 to 87 °C; for `COCCCN1CC[C@@H](CNC(=O)c2cc(Cl)cc3c2OCCO3)[C@H](O)C1`, 110 °C; for `N#CN=c1ccccn1C1=CC(CF)(CF)Oc2ccc(C(F)(F)C(F)(F)F)cc21`, 196 to 198 °C.

For `CC(=O)SCC(Cc1ccccc1)NC(=O)N1CCN(c2ccc(Cl)cc2)CC1` (single isomer, unassigned; (+)), the melting point was determined as 140 °C. The compound `Cc1c(CNCC(C)C)n(C)c2ccc(NC(=O)c3ccc(OCC4CC4)cc3)cc12` displayed a melting point of 142 to 143 °C. For the compound `CC(C)n1nc(-c2c(OC3CCOCC3)nc(N)nc2-c2ccccc2)ccc1=O`, the melting point was 207 to 209 °C. In the case of `COc1cc(/C=C/C=C/C(=O)NCCN2CCC(c3c[nH]c4ccccc34)CC2)cc(OC)c1OC(C)=O` it was 169 to 172 °C; in that of `CCCS(=O)(=O)c1cccc(-c2nc(=O)c3ccccc3s2)n1`, 174 °C. In the case of `O=C(O)c1ccc(Cl)cc1OCCN1CCC(c2cn(Cc3ccoc3)c3ncccc23)CC1` it was 81.6 to 83.3 °C. In the case of `CC(C)=CCN1CCOC(CN2c3ccccc3C=Cc3ccccc32)C1` (stereo not drawn) it was 99 to 100 °C; in that of `CCC(C)NC(C(=O)NCCCC(c1ccc(F)cc1)c1ccc(F)cc1)C(C)C` (stereo not drawn), 77 to 81 °C; in that of `Nc1ncccc1C(=O)NCCCOc1ccc(-c2ccc(=O)[nH]n2)cc1`, 232 to 234 °C. Take `O=C(O)COc1ccc(C(=O)c2ccc(Cl)c(Cl)c2)c(Cl)c1Cl`: the melting point was 165 to 167 °C. In the case of `CSc1nnc(C(F)(F)F)n1C` it was 46 °C.

`CCOC(=O)Nc1cc(Oc2ncccn2)c(Br)cc1F` returned a melting point of 178 °C.

With `COC(=O)C1=CC(C)(N)NC(C2CC2)=N1` (stereo not drawn), the melting point lay within 152 to 153 °C. In turn, `CCCC(=O)c1cnc2ccc(OC)cc2c1Cl` gave a melting point of 73 to 75 °C. In the case of `COc1ccccc1-n1c(=O)[nH]c2c(C(N)=O)nc(N[C@H]3CC[C@H](OC(N)=O)CC3)nc21` it was 157 to 160 °C; in that of `CNC(=O)c1cc2c(Oc3ccc(Cl)c(F)c3)cncc2s1`, 62 to 64 °C; in that of `[N-]=[N+]=Nc1nc(-c2ccccc2)nc(-c2ccccc2)n1`, 115 to 117 °C. For `Cc1ccc(S(=O)(=O)N2CCC(Sc3ccc(Cl)c(Cl)c3)CC2)cc1`, the melting point is 79 to 80 °C. For `Cc1c(S(C)(=O)=O)ccc(C(=O)O)c1Cl`, the melting point lay in the range of 230 to 231 °C.

Compound `CN(C)c1cccc(NC(=O)N(C[C@H]2CC[C@H](CN(C(=O)Nc3cccc(N(C)C)c3)C3CCCCCC3)CC2)C2CCCCCC2)c1` showed a melting point of 151 to 156 °C. For `COc1ccc(OC)c2c1COC(C(=O)O)C2` (stereo not drawn), the melting point fell in the range of 164 to 166 °C. For `CCc1cc2c(s1)S(=O)CCc1cc(=O)n(-c3ccc(Cl)cc3)nc1-2` (stereo not drawn) the value was 173 to 174 °C; for `CCOC(=O)C(=CNc1ncnc2ccc(NC(=O)C(CC)CC)cc12)C(=O)OCC`, 191 to 194 °C; for `C=CS(=O)(=O)N1CCC[C@H]1C(=O)OC(C)(C)C`, 84 to 87 °C. Turning to `COc1ccc(NS(=O)(=O)c2cc(OC)c(OC)c(OC)c2)cc1O`, the melting point is 145 to 146 °C. For `CC(C)(O)[C@H]1C[C@@H](C(=O)O)C1(C)C` the value was 98 to 99 °C; for `Cn1c(C(O)(C(F)(F)F)C(F)(F)F)cc(-c2ccc(F)cc2)c1-c1ccc(F)cc1`, 130 to 131 °C; for `O=C(Nc1ccc2c(c1)NCCC2)c1cc2cc(F)ccc2n1Cc1cccc(F)c1`, 149 to 151 °C. For the compound `CN1C(=O)N(c2cccc(Cl)c2)C(=O)C1S(=O)(=O)c1ccc(F)cc1` (stereo not drawn), the melting point was 170 to 173 °C. `FC(F)(F)c1ccc(C2CNCc3[nH]c4ccccc4c32)cc1` (stereo not drawn) returned a melting point of 172 to 174 °C. On to `COc1ccc(-c2nn(Cc3ccc(F)cc3)c(=O)cc2-c2ccncc2)cc1`, for which the melting point lay within 154 to 155 °C. `Cc1cc(C#N)cn2cc(-c3cccc(-c4ccc(C#N)cc4)c3)nc12` showed a melting point of 236 to 238 °C. As to `CC(C)n1nc(-c2c(-c3ccccc3)nn3ccc(C(=O)N4CCCC4)cc23)ccc1=O`, the melting point is 189 to 190 °C. In turn, `COC(=O)c1sc(OC)cc1OP(=O)(OC)OC` registered a melting point of 35 °C. In the case of `Nc1nc(N)nc(C=Cc2ccc(C=C3C(=O)NC(=O)NC3=O)cc2)n1` it was more than 350 °C; in that of `Cc1nnc(CNC(=O)CCl)n1-c1ccc(Cl)cc1C(=O)c1ccccc1`, 140 to 141 °C; in that of `Cc1oc(-c2ccccc2)nc1CCOS(C)(=O)=O`, 88.2 to 89 °C.

Consider `CCCCCCCCS(=O)(=O)ON=C(C#N)c1cccs1`, for which the melting point fell in the range of 77 to 82 °C.

`COCCOCCOc1ccc(/C=C/C(=O)O)c(Oc2ncc(C(F)(F)F)cc2Cl)c1`: the melting point was determined as 134 °C.

For the compound `O=C(O)c1ccc(NCCCCCCCCCCc2ccccc2)cc1`, the melting point is 80 to 87 °C. For `N#Cc1cccc2c1N(Cc1ccc(Cl)s1)C(=O)C21COc2cc3c(cc21)OCO3` (stereo not drawn) the value was 192 to 193 °C; for `Nc1ccc(C23CC(C2)C(=O)NC3=O)cc1`, 265 °C; for `Cn1nnc(-c2ccc(C=Cc3ccc(-c4nc5ccccc5o4)cc3)cc2)c1-c1nc2ccccc2o1`, 246 to 249 °C. The compound `Cn1cc2c3c(c(Cl)cc2n1)CCC3=O` displayed a melting point of 207 to 209 °C.

The compound `CCN1CCNC1=C[N+](=O)[O-]` registered a melting point of 110 to 111 °C. For `COCCNC(=O)CN1CCN(Cc2ccc3c(c2)NC(=O)C(C)O3)CC1` (stereo not drawn) the value was 111 to 142 °C; for `O=C(O)c1ccc(SC(=O)c2ccc(O)c(C34CC5CC(CC(C5)C3)C4)c2)cc1`, 272 to 274 °C; for `CN1C(=O)COc2cc3c(cc21)C1(CO3)C(=O)N(CC2CCCO2)c2ccccc21` (stereo not drawn), 79 to 81 °C. In the case of `NC(=O)c1nnn(Cc2ccccc2F)c1C(N)=O` it was 49 to 51 °C; in that of `CCOc1ccc2c(c1)n(C1CCCCC1)c(=O)n2Cc1ccc(-n2cccc2)cc1OC`, 115 °C; in that of `CCN1CCN(Cc2nc3sc(Br)cc3c(=O)n2-c2ccccc2Cl)CC1`, 155 to 158 °C. `O=C(O)Cc1ccccc1Sc1ccc(F)c(F)c1` gave a melting point of 54 to 57 °C.

Turning to `COc1cc(OC(c2ccccc2)c2ccccc2)ccc1/C=C/c1cc(/C=C/c2ccc3cc[nH]c3c2)[nH]n1`, the melting point fell in the range of 114 to 119 °C. `COC(C(=O)O)c1nn(-c2ccc(Br)cc2)c2c1CCCC2` (stereo not drawn) had a melting point of 123 °C. In the case of `COC(=O)c1cc(NC(=O)C(N)c2ccc3c(c2)C(C)(C)CCC3(C)C)cn1C` (stereo not drawn) it was 122 to 124 °C. In the case of `O=S(=O)(c1ccc(Cl)c(CBr)c1Cl)N1CC[C@H](O)C1` it was 120 °C. For `COC(=O)Cc1c(C)ncnc1Oc1cccc(-c2ccccc2)c1` the value was 113 to 115 °C; for `CON=C(C)c1cc(C#N)c(=O)[nH]c1C`, 275 to 285 °C; for `CC(=O)NC[C@H]1CN(c2cc(F)c(N3CCC(O)(COCC(F)(F)F)CC3)c(F)c2)C(=O)O1`, 182 to 184 °C. In the case of `CCC(=O)c1ncn2c1CN(C)C(=O)c1ccccc1-2`, the melting point was 215 to 216 °C.

`CC(C)=CC(=O)N1CCN(C(Cc2cccc(O)c2)c2ccccc2)CC1` (stereo not drawn) yielded a melting point of 186 to 187 °C.

`COc1ccc2c(c1O)C13CCN(CC4CC4)C(C2)C1CC(C)C(=O)C3` (stereo not drawn) yielded a melting point of 176 to 178 °C. Take `COc1cc(Oc2nn(C)c(C(F)(F)F)c2Cl)ccc1[N+](=O)[O-]`: the melting point was in the range of 71 to 73.5 °C. `Cc1c(C)c(N2CCN(c3ccc(F)cc3)CC2)c(C)c2c1OC(C)C2` (stereo not drawn) came in with a melting point of 137 to 138 °C. In the case of `O=C1c2cccc3cc4ccccc4c(c23)C(=O)N1CCNCCCCCNCCN1C(=O)c2cccc3cc4ccccc4c(c23)C1=O` it was 122 °C.

As for `CCOC(=O)c1c(Cl)c2ccc(C)nc2n(C)c1=O`, the melting point was 108 to 111 °C. In turn, `O=C(NCNc1c(Nc2cccnc2)c(=O)c1=O)c1ccc(Cl)cc1` had a melting point of 174 to 176 °C.

As to `CC(C)(C)OC(=O)N1CCn2c(C#N)c(-c3cccc(F)c3)c(C(=O)O)c2C1`, the melting point is more than 210 °C. `O=C(NCC1CCN(C[C@H]2COc3cccc(Cl)c3O2)CC1)c1cccnc1` registered a melting point of 52 to 54 °C.

`COc1ccc(NN=C(Sc2ccc(C)c(C)c2)C(C)=O)cc1` gave a melting point of 138 to 141 °C. For `O=C(c1cccnc1)N1CC2CCc3ccccc3C2=N1` (stereo not drawn) the value was 141 to 143 °C. In the case of `COc1ccc2c(=O)c(C#N)c(N)oc2c1` it was 300 °C; in that of `CCOCc1nc2c(N)nc3cc(-c4ccncc4)ccc3c2n1CC(C)(C)O`, 220 to 221 °C.
